Experiments:
Experiment in all cases: relative viability (nuclei count vs DMSO), 5 days (fraction); higher = more cells survive
PC-3 [JPC-3] = system: PC-3 [JPC-3]
Procedure, shortened: (§1)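 Each reported value is a median over duplicate plates. It expresses relative viability: treated-well nuclei count divided by vehicle-well nuclei count. Lung cancer cell lines in 1536-well plates were dosed by pin tool a day after seeding, alone with one drug or with a fixed anchor-drug dose plus five library-drug doses (not always all listed) in √10 steps, and nuclei were counted after 5 days.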

LU99A = system: LU99A
Procedure, shortened: as §1

NCI-H2126 = system: NCI-H2126
Procedure, shortened: as §1

NCI-H520 = system: NCI-H520
Procedure, shortened: as §1

201T = system: 201T
Procedure, shortened: as §1

SW 1573 = system: SW 1573
Procedure, shortened: as §1

NCI-H1437 = system: NCI-H1437
Procedure, shortened: as §1

NCI-H2347 = system: NCI-H2347
Procedure, shortened: as §1

UMC-11 = system: UMC-11
Procedure, shortened: as §1

NCI-H1355 = system: NCI-H1355
Procedure, shortened: as §1

NCI-H727 = system: NCI-H727
Procedure, shortened: as §1

NCI-H2009 = system: NCI-H2009
Procedure, shortened: as §1

NCI-H2405 = system: NCI-H2405
Procedure, shortened: as §1

NCI-H838 = system: NCI-H838
Procedure, shortened: as §1

HCC-366 = system: HCC-366
Procedure, shortened: as §1

NCI-H1734 = system: NCI-H1734
Procedure, shortened: as §1

BEN = system: BEN
Procedure, shortened: as §1

HARA = system: HARA
Procedure, shortened: as §1

HCC-78 = system: HCC-78
Procedure, shortened: as §1

HCC-44 = system: HCC-44
Procedure, shortened: as §1

NCI-H441 = system: NCI-H441
Procedure, shortened: as §1

COCC1(CO)C(=O)C2CCN1CC2 (centres undefined) [PRIMA-1MET] + CC(C)C[C@H](NC(=O)[C@H](Cc1ccccc1)NC(=O)c1cnccn1)B(O)O [Bortezomib] (partner 0.002 µM)
relative viability (PC-3 [JPC-3]; first compound 0.2 µM): 0.958
relative viability (PC-3 [JPC-3]; first compound 0.6325 µM): 0.688
relative viability (PC-3 [JPC-3]; first compound 2 µM): 0.874
relative viability (PC-3 [JPC-3]; first compound 6.325 µM): 0.858
relative viability (PC-3 [JPC-3]; first compound 20 µM): 0.792
relative viability (LU99A; first compound 0.2 µM): 1.09
relative viability (LU99A; first compound 0.6325 µM): 0.957
relative viability (LU99A; first compound 2 µM): 1.15
relative viability (LU99A; first compound 6.325 µM): 0.892
relative viability (LU99A; first compound 20 µM): 0.103
relative viability (NCI-H2126; first compound 0.2 µM): 1.21
relative viability (NCI-H2126; first compound 0.6325 µM): 1.13
relative viability (NCI-H2126; first compound 2 µM): 1.06
relative viability (NCI-H2126; first compound 6.325 µM): 1.16
relative viability (NCI-H2126; first compound 20 µM): 1.1
relative viability (NCI-H520; first compound 0.2 µM): 0.545
relative viability (NCI-H520; first compound 0.6325 µM): 0.503
relative viability (NCI-H520; first compound 6.325 µM): 0.613
relative viability (NCI-H520; first compound 20 µM): 0.113
relative viability (201T; first compound 0.2 µM): 1.18
relative viability (201T; first compound 0.6325 µM): 1.07
relative viability (201T; first compound 2 µM): 1.07
relative viability (201T; first compound 6.325 µM): 1.15
relative viability (201T; first compound 20 µM): 1.08
relative viability (SW 1573; first compound 0.2 µM): 1.13
relative viability (SW 1573; first compound 0.6325 µM): 0.802
relative viability (SW 1573; first compound 2 µM): 1.03
relative viability (SW 1573; first compound 6.325 µM): 0.421
relative viability (SW 1573; first compound 20 µM): 0.0222
relative viability (NCI-H1437; first compound 0.2 µM): 0.573
relative viability (NCI-H1437; first compound 0.6325 µM): 0.403
relative viability (NCI-H1437; first compound 2 µM): 0.538
relative viability (NCI-H1437; first compound 6.325 µM): 0.594
relative viability (NCI-H1437; first compound 20 µM): 0.432
relative viability (NCI-H2347; first compound 0.2 µM): 1.33
relative viability (NCI-H2347; first compound 0.6325 µM): 1.11
relative viability (NCI-H2347; first compound 6.325 µM): 1.07
relative viability (NCI-H2347; first compound 20 µM): 0.847
relative viability (UMC-11; first compound 0.2 µM): 0.778
relative viability (UMC-11; first compound 0.6325 µM): 0.407
relative viability (UMC-11; first compound 2 µM): 0.666
relative viability (UMC-11; first compound 6.325 µM): 0.771
relative viability (UMC-11; first compound 20 µM): 0.777
relative viability (NCI-H1355; first compound 0.2 µM): 1.26
relative viability (NCI-H1355; first compound 0.6325 µM): 1.12
relative viability (NCI-H1355; first compound 2 µM): 1.21
relative viability (NCI-H1355; first compound 6.325 µM): 1.31
relative viability (NCI-H1355; first compound 20 µM): 1.18
relative viability (NCI-H727; first compound 0.2 µM): 0.573
relative viability (NCI-H727; first compound 0.6325 µM): 0.829
relative viability (NCI-H727; first compound 2 µM): 0.618
relative viability (NCI-H727; first compound 6.325 µM): 0.573
relative viability (NCI-H727; first compound 20 µM): 0.0549
relative viability (NCI-H2009; first compound 0.2 µM): 0.714
relative viability (NCI-H2009; first compound 0.6325 µM): 0.885
relative viability (NCI-H2009; first compound 2 µM): 0.779
relative viability (NCI-H2009; first compound 6.325 µM): 0.975
relative viability (NCI-H2009; first compound 20 µM): 0.0124
relative viability (NCI-H2405; first compound 0.2 µM): 0.716
relative viability (NCI-H2405; first compound 0.6325 µM): 0.786
relative viability (NCI-H2405; first compound 6.325 µM): 0.92
relative viability (NCI-H2405; first compound 20 µM): 0.952
relative viability (NCI-H838; first compound 0.2 µM): 0.9
relative viability (NCI-H838; first compound 0.6325 µM): 0.652
relative viability (NCI-H838; first compound 2 µM): 0.745
relative viability (NCI-H838; first compound 6.325 µM): 0.978
relative viability (NCI-H838; first compound 20 µM): 0.263
relative viability (HCC-366; first compound 0.2 µM): 1.15
relative viability (HCC-366; first compound 0.6325 µM): 0.838
relative viability (HCC-366; first compound 6.325 µM): 1.01
relative viability (HCC-366; first compound 20 µM): 0.0138
relative viability (NCI-H1734; first compound 0.2 µM): 1.16
relative viability (NCI-H1734; first compound 0.6325 µM): 0.75
relative viability (NCI-H1734; first compound 2 µM): 0.812
relative viability (NCI-H1734; first compound 6.325 µM): 0.967
relative viability (NCI-H1734; first compound 20 µM): 0.224
relative viability (BEN; first compound 0.2 µM): 0.853
relative viability (BEN; first compound 0.6325 µM): 0.75
relative viability (BEN; first compound 6.325 µM): 0.888
relative viability (BEN; first compound 20 µM): 0.864
relative viability (HARA; first compound 0.2 µM): 1.24
relative viability (HARA; first compound 0.6325 µM): 0.704
relative viability (HARA; first compound 6.325 µM): 1.07
relative viability (HARA; first compound 20 µM): 1.14
relative viability (HCC-78; first compound 0.2 µM): 0.694
relative viability (HCC-78; first compound 0.6325 µM): 0.521
relative viability (HCC-78; first compound 2 µM): 0.452
relative viability (HCC-78; first compound 6.325 µM): 0.485
relative viability (HCC-78; first compound 20 µM): 0.0823
relative viability (HCC-44; first compound 0.2 µM): 0.971
relative viability (HCC-44; first compound 0.6325 µM): 0.76
relative viability (HCC-44; first compound 2 µM): 0.927
relative viability (HCC-44; first compound 6.325 µM): 0.911
relative viability (HCC-44; first compound 20 µM): 0.877
relative viability (NCI-H441; first compound 0.2 µM): 0.387
relative viability (NCI-H441; first compound 0.6325 µM): 0.407
relative viability (NCI-H441; first compound 2 µM): 0.347
relative viability (NCI-H441; first compound 6.325 µM): 0.404
relative viability (NCI-H441; first compound 20 µM): 0.107
